In patent US12077503B2, “Substituted cyclic amides and their use as herbicides” (FMC CORPORATION, priority 2015, dated 2024) one finds pest or weed control, Corn plant response rating (crop injury, 0 = no effect, 100 = complete kill) and plant injury data, which are given here for 1 compound.

The structures appear in SMILES notation.

Holding throughout (assay type): in vivo
For assay [1], the system named is pigweed (Amaranthus retroflexus). Kind of assay: Test A preemergence. To be noted: Amaranthus retroflexus, pre-emergence, 240 h, preemergence, read-out: Plant response rating, Pigweed.
For assay [2], the system named is Kochia (Kochia scoparia). As to the kind of experiment: Test A preemergence. Conditions: Bassia scoparia, pre-emergence, 240 h, preemergence, read-out: Plant response rating, Kochia. The procedure, abridged:
(§1)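 Visual injury scores from 0, no effect, to 100, complete control, were assigned versus untreated controls roughly 10 d after treatment in the greenhouse. Test chemicals, formulated with surfactant in a non-phytotoxic solvent, were applied to planted seeds as a preemergence soil spray or postemergence to one- to two-leaf plants 2 to 10 cm tall, in loam–sand soil.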

The subject of assay [3] is ragweed (common ragweed, Ambrosia elatior). Kind of assay: Test A preemergence. To be noted: Ambrosia artemisiifolia, pre-emergence, 240 h, preemergence, read-out: Plant response rating, Ragweed. The procedure, abridged:
as §1

The test system of assay [4] is ryegrass, Italian (Italian ryegrass, Lolium multiflorum). Kind of assay: Test A preemergence. Conditions: Lolium multiflorum, pre-emergence, 240 h, 125 g ai/ha, preemergence; visual rating after approx. 10 d; 0 to 100 scale where 0 is no effect and 100 is complete control; read-out: Plant response rating, Ryegrass, Italian. The procedure, abridged: as §1
In assay [5] the test system is giant foxtail (Setaria faberii). Kind of assay: Test A preemergence. To be noted: Setaria faberi, pre-emergence, 240 h, preemergence, read-out: Plant response rating, Foxtail, Giant. The procedure, abridged:
as §1

In assay [6] the test system is barnyardgrass (Echinochloa crus-galli). As to the kind of experiment: Test A preemergence. To be noted: Echinochloa crus-galli, pre-emergence, 240 h, preemergence, read-out: Plant response rating, Barnyardgrass. In outline: as §1
Assay [7] concerns pigweed (Amaranthus retroflexus). As to the kind of experiment: Test A postemergence. Conditions: Amaranthus retroflexus, post-emergence, 240 h, 125 g ai/ha, postemergence; visual injury after approximately 10 d; 0 to 100 scale (0 no effect, 100 complete control); read-out: Plant response rating, Pigweed. The procedure, abridged:
as §1

Assay [8] relates to Kochia (Kochia scoparia). As to the kind of experiment: Test A postemergence. To be noted: Bassia scoparia, post-emergence, 240 h, 125 g ai/ha, postemergence; visual injury after approximately 10 d; 0 to 100 scale (0 no effect, 100 complete control); read-out: Plant response rating, Kochia. In outline: as §1
The subject of assay [9] is Galium (catchweed bedstraw, Galium aparine). Kind of assay: Test A postemergence. To be noted: Galium, post-emergence, 240 h, 125 g ai/ha, postemergence; visual injury after approximately 10 d; 0 to 100 scale (0 no effect, 100 complete control); read-out: Plant response rating, Galium. In outline: as §1
The next assay relates to corn (Zea mays). Kind of assay: Test A postemergence. Conditions: Zea mays, post-emergence, 240 h, 125 g ai/ha, postemergence; visual injury after approximately 10 d; 0 to 100 scale (0 no effect, 100 complete control). The procedure, abridged:
as §1

For assay [10], the system named is wheat (Triticum aestivum). As to the kind of experiment: Test A postemergence. Conditions: Triticum aestivum, post-emergence, 240 h, 125 g ai/ha, postemergence; visual injury after approximately 10 d; 0 to 100 scale (0 no effect, 100 complete control); read-out: Plant response rating, Wheat. In outline: as §1
The subject of assay [11] is ragweed (common ragweed, Ambrosia elatior). Kind of assay: Test A postemergence. Conditions: Ambrosia artemisiifolia, post-emergence, 240 h, 125 g ai/ha, postemergence; visual injury after approximately 10 d; 0 to 100 scale (0 no effect, 100 complete control); read-out: Plant response rating, Ragweed. The procedure, abridged:
as §1

Assay [12] concerns ryegrass, Italian (Italian ryegrass, Lolium multiflorum). As to the kind of experiment: Test A postemergence. Conditions: Lolium multiflorum, post-emergence, 240 h, 125 g ai/ha, postemergence; visual injury after approximately 10 d; 0 to 100 scale (0 no effect, 100 complete control); read-out: Plant response rating, Ryegrass, Italian. In outline: as §1
In assay [13] the test system is giant foxtail (Setaria faberii). Kind of assay: Test A postemergence. Conditions: Setaria faberi, post-emergence, 240 h, 125 g ai/ha, postemergence; visual injury after approximately 10 d; 0 to 100 scale (0 no effect, 100 complete control); read-out: Plant response rating, Foxtail, Giant. The procedure, abridged:
as §1

For assay [14], the system named is barnyardgrass (Echinochloa crus-galli). As to the kind of experiment: Test A postemergence. To be noted: Echinochloa crus-galli, post-emergence, 240 h, 125 g ai/ha, postemergence; visual injury after approximately 10 d; 0 to 100 scale (0 no effect, 100 complete control); read-out: Plant response rating, Barnyardgrass. The procedure, abridged:
as §1

Setting [15] is: 125 g ai/ha, visual rating after approx. 10 d, 0 to 100 scale where 0 is no effect and 100 is complete control.
Where [16] appears, read: 500 g ai/ha, 0 to 100 scale, 0 = no effect, 100 = complete control.

Take `COc1cc([C@H]2CN(C)C(=O)[C@@H]2C(=O)Nc2ccccc2F)ccc1C(F)(F)F` [Compound 768]: the pest or weed control at 125 g/ha in assay [1] (setting [15]) was 0%; in the assay with Kochia (Kochia scoparia) [2] (setting [15]), 60%; in assay [3] (setting [15]), 0%; in [4] it was 0%; in [5] (setting [15]) it was 90%; in assay [6] (setting [15]), 90%. Moreover, the pest or weed control at 125 g/ha worked out at 0% in assay [7]; 0% in the assay on Kochia (Kochia scoparia) [8]; 30% in assay [9]; 0% in assay [11]; 30% in assay [12]; 80% in assay [13]. Also, in assay [14], the pest or weed control at 125 g/ha was 70%. For the same compound, the pest or weed control at 500 g/ha in assay [1] (setting [16]) amounted to 20%; in the assay with Kochia (Kochia scoparia) [2] (setting [16]), 70%; in assay [3] (setting [16]) it was 0%; in [5] (setting [16]), 90%; in assay [6] (setting [16]), 90%. In the assay with corn (Zea mays), this compound registered a Corn plant response rating (crop injury, 0 = no effect, 100 = complete kill) at 125 g/ha of 30%. The plant injury at 125 g/ha in [10] was determined as 0%.
